Experimental data from paper PMC3086806, “Mining a Cathepsin Inhibitor Library for New Antiparasitic Drug Leads” (PLoS Neglected Tropical Diseases, 2011).

Key:
[1] = tested on: intracellular T. cruzi (CA-I/72) in BESM cells; experiment: T. cruzi amastigote growth inhibition assay; type: cell-based; conditions: Trypanosoma cruzi; infected BESM cells, 72 hours
Method: The growth inhibition assay for the intracellular T. cruzi was conducted in 96-well plate format as described previously. Briefly, bovine embryo skeletal muscle (BESM) cells (2×10^3/well), seeded overnight, were infected with CA-I/72 T. cruzi trypomastigotes (2×10^3/well). Sixteen hours post-infection, test compounds (serial dilution concentrations starting from 20 µM) were added and assay plates were incubated for an additional 72 hours at 37°C with 5% CO2. Cells were then washed once in PBS, fixed with 4% paraformaldehyde and stained with DNA fluorescent dye DAPI (4′ 6-diamidino-2-phenylindole). The assay plates were then imaged in the IN Cell Analyzer 2000 (GE Healthcare) with the excitation and emission filters set of 350 nm and 460 nm, respectively, to detect DAPI signals. The feature extraction module in IN Cell Developer Toolbox 1.7 software was used to count host nuclei and parasite kinetoplasts by size difference.

[2] = tested on: W2-strain P. falciparum parasites; experiment: P. falciparum growth inhibition assay; type: cell-based, Plasmodium falciparum; conditions: Plasmodium falciparum; cultured W2 strain, 48 hours; read-out: GI50 P. falc. W2
Method: The growth inhibition assay for P. falciparum was conducted as described previously. W2-strain P. falciparum parasites (1% parasitemia, 2% hematocrit) were cultured at 37°C in human red blood cells under the atmosphere of 3% O2, 5% CO2 balance N2 in 0.2 mL of per well in medium RPMI-1640 supplemented with 10% human serum in duplicate 96-well flat bottom culture plates in the presence of inhibitors. Tested compounds were serially diluted 1∶3 in the range 10,000 – 4.6 nM, with maximum DMSO concentration of 0.1%. Following 48 hours of incubation, the medium was removed and the cells were fixed in 2% formaldehyde in PBS. Parasite growth was evaluated by flow cytometry on a FACsort (Becton Dickinson) equipped with AMS-1 loader (Cytek Development) after staining with 1 nM DNA dye YOYO-1(Molecular Probes) in 100 mM NH4Cl, 0.8% NaCl. Parasitemias were determined from dot plots (forward scatter vs. fluorescence) using […] software (Becton Dickinson). IC50 values for growth inhibition were determined from plots of percentage control parasitemia over inhibitor concentration using GraphPad Prism software.

[3] = tested on: T. brucei brucei clone 427-221a bloodstream forms; experiment: T. brucei brucei growth inhibition assay; type: cell-based; conditions: Trypanosoma brucei; 40 hours
Method: The growth inhibition assay for T. brucei brucei was conducted as described previously. Bloodstream forms of the monomorphic T. brucei brucei clone 427-221a were grown in complete HMI-9 medium containing 10% FBS, 10% Serum Plus medium (Sigma Inc. St. Louis Mo. USA), 50 U/mL penicillin and 50 µg/mL streptomycin (Invitrogen) at 37°C under a humidified atmosphere and 5% CO2. […] 5 µL of each dilution was added to 95 µL of diluted parasites (1×10^4 cells per well) in sterile Greiner 96-well flat white opaque culture plates such that the final DMSO concentration was 0.5%. The 0% inhibition control wells contained 0.5% DMSO while 100% inhibition control wells contained 50 µM thimerosal (Sigma). After compound addition, plates were incubated for 40 hours at 37°C. At the end of the incubation period, 50 µL of CellTiter-Glo™ reagent (Promega Inc., Madison, WI, USA) was added to each well and plates were placed on an orbital shaker at room temperature for 2 min to induce lysis. After an additional 10 min incubation without shaking to stabilize the signal, the ATP-bioluminescence of each well was determined using an Analyst HT plate reader (Molecular Devices, Sunnyvale, CA, USA). Raw values were converted to log10 and percentage inhibition calculated relative to the controls. IC50 curve fittings were performed with Prism 4 software as above.

rhodesain = biological target: T1, rhodesain (Trypanosoma brucei rhodesiense, UniProt Q95PM0); experiment: Rhodesain protease inhibition assay (Z-Phe-Arg-AMC); type: biochemical; conditions: for Fold more potent inhibition of rhodesain than TbCatB: rhodesain vs TbCatB IC50
T1 construct: made in house
T1 sequence (Q95PM0 entry or part of it): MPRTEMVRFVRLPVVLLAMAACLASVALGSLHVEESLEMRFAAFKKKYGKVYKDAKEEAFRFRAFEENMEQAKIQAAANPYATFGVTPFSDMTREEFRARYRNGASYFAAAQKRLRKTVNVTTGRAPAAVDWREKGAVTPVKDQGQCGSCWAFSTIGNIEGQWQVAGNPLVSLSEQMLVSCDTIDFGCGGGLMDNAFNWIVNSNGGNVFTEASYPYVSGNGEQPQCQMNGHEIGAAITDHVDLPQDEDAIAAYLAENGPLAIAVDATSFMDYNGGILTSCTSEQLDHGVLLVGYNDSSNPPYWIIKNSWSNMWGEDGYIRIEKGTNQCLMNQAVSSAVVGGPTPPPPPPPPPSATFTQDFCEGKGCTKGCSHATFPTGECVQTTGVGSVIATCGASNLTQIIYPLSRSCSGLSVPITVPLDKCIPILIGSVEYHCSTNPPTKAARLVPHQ
Method: (§1) Recombinant cruzain, rhodesain, TbCatB, falcipain-2 and falcipain-3 were expressed as described previously, [39], [40], [41], [42]. Inhibitor stock solutions were prepared in DMSO and screened at 0.1 µM for cruzain and rhodesain, 1 µM for TbCatB and 50 nM for falcipain-3 (0.5% DMSO in assay). […] Protease inhibition assays for cruzain and rhodesain were carried out in 96 well plate format as described previously. Cruzain (4 nM), rhodesain (4 nM) or TbCatB (258 nM) was incubated with test compound in 100 mM sodium acetate, pH 5.5, containing 5 mM DTT and 0.01% Triton X-100 (buffer A), for 5 min at room temperature (the higher concentration of TbCatB was required due to its lower intrinsic activity against the fluorogenic substrate). Then buffer A containing Z-Phe-Arg-AMC (Bachem) was added to enzyme-compound mixture to give 10 µM substrate in a final assay volume of 200 µL. The rate of free AMC release was measured at excitation and emission wavelengths of 355 and 460 nm, respectively, with a microtiter plate spectrofluorimeter (SpectraMax M5, Molecular Devices) for 3 min. Percentage inhibition of test compound was calculated relative to the DMSO control (0% inhibition control). IC50 values were determined with Prism 4 software (GraphPad, San Diego, CA) using sigmoidal dose-response variable slope model.

TbCatB = biological target: T2, TbCatB (Trypanosoma brucei, UniProt Q6R7Z5); experiment: TbCatB protease inhibition assay (Z-Phe-Arg-AMC); type: biochemical
T2 construct: made in house
T2 sequence (Q6R7Z5 23-340): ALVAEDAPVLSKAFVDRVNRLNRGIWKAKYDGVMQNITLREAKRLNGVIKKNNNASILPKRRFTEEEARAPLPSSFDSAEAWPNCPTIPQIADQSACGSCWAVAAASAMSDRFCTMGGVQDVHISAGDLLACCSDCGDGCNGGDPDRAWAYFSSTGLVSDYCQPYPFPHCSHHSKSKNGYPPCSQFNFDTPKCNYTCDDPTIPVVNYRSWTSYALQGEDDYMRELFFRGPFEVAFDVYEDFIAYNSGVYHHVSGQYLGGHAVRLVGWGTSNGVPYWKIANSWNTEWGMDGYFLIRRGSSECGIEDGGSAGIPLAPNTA
Method: as §1

human cathepsin L = biological target: human cathepsin L; design: method as in data provided by Celera Genomics; conditions: historical data; ref data provided by Celera Genomics; read-out: Ki catL; cited from earlier work
cruzain = biological target: T3, cruzain (Trypanosoma cruzi, UniProt P25779); experiment: Cruzain protease inhibition assay (Z-Phe-Arg-AMC); type: biochemical
T3 construct: made in house
T3 sequence (P25779 123-467): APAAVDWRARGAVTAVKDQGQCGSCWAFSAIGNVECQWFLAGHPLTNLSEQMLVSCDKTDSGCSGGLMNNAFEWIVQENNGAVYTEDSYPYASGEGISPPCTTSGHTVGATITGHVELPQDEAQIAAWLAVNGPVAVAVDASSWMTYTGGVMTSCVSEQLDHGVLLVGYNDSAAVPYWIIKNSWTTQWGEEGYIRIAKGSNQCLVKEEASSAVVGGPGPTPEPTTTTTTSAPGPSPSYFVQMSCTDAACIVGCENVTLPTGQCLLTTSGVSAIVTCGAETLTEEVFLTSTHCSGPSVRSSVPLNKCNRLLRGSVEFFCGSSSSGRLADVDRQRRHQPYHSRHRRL
Method: as §1

Structure (SMILES): CCCCC(NC(=O)C(CC(C)C)NC(=O)N1CCOCC1)C(=O)c1nc2ccccc2o1 (stereo not shown) [Compound 19a]
- GI50 [1]: 20 µM
- GI50 [2]: 1.2 µM
- GI50 [3]: > 25 µM
- IC50 (rhodesain): 0.001 µM
- Fold more potent inhibition of rhodesain than TbCatB (rhodesain): ~1000 fold
- IC50 (TbCatB): 1 µM
- Ki (human cathepsin L): 0.026 µM
- IC50 (cruzain): 0.001 µM

Structure (SMILES): CCCCC(NC(=O)C(Cc1ccccc1)NC(=O)N1CCOCC1)C(=O)c1nc2ccccc2o1 (stereo not shown) [Compound 19b]
- GI50 [1]: 10.9 µM
- GI50 [2]: 2.9 µM
- GI50 [3]: > 25 µM
- IC50 (rhodesain): 0.001 µM
- Fold more potent inhibition of rhodesain than TbCatB (rhodesain): ~1000 fold
- IC50 (TbCatB): 0.6 µM
- Ki (human cathepsin L): 0.18 µM
- IC50 (cruzain): 0.004 µM
